Laboratory results published in the supplement of paper PMC10307832.

Tests used:
Experiment in all cases: relative viability (nuclei count vs DMSO), 5 days (fraction); higher = more cells survive
Bosutinib + Lapatinib = compound: COc1cc(Nc2c(C#N)cnc3cc(OCCCN4CCN(C)CC4)c(OC)cc23)c(Cl)cc1Cl [Bosutinib] + CS(=O)(=O)CCNCc1ccc(-c2ccc3ncnc(Nc4ccc(OCc5cccc(F)c5)c(Cl)c4)c3c2)o1 [Lapatinib] (partner 2 µM)
Summary of the method: (§1)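 Relative viability was taken as the ratio of nuclei in treated wells to nuclei in vehicle wells. Lung cancer cell lines in 1536-well plates received compounds by pin tool one day after seeding, either one drug alone or a fixed anchor-drug dose plus five library-drug doses (not always all listed) in √10 steps. Nuclei were counted on 4× images after 5 days of treatment, and values are medians of duplicate plates.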

Bosutinib + Pemetrexed = compound: COc1cc(Nc2c(C#N)cnc3cc(OCCCN4CCN(C)CC4)c(OC)cc23)c(Cl)cc1Cl [Bosutinib] + Nc1nc2[nH]cc(CCc3ccc(C(=O)N[C@@H](CCC(=O)O)C(=O)O)cc3)c2c(=O)[nH]1 [Pemetrexed] (partner 0.2 µM)
Summary of the method: as §1

Bosutinib + Bortezomib = compound: COc1cc(Nc2c(C#N)cnc3cc(OCCCN4CCN(C)CC4)c(OC)cc23)c(Cl)cc1Cl [Bosutinib] + CC(C)C[C@H](NC(=O)[C@H](Cc1ccccc1)NC(=O)c1cnccn1)B(O)O [Bortezomib] (partner 0.002 µM)
Summary of the method: as §1

Bosutinib + Palbociclib = compound: COc1cc(Nc2c(C#N)cnc3cc(OCCCN4CCN(C)CC4)c(OC)cc23)c(Cl)cc1Cl [Bosutinib] + CC(=O)c1c(C)c2cnc(Nc3ccc(N4CCNCC4)cn3)nc2n(C2CCCC2)c1=O [Palbociclib] (partner 0.5 µM)
Summary of the method: as §1

Bosutinib + Pictilisib = compound: COc1cc(Nc2c(C#N)cnc3cc(OCCCN4CCN(C)CC4)c(OC)cc23)c(Cl)cc1Cl [Bosutinib] + CS(=O)(=O)N1CCN(Cc2cc3nc(-c4cccc5[nH]ncc45)nc(N4CCOCC4)c3s2)CC1 [Pictilisib] (partner 1 µM)
Summary of the method: as §1

Row | Cell Line | relative viability (Bosutinib + Lapatinib; first compound 0.01 µM) | relative viability (Bosutinib + Lapatinib; first compound 0.03162 µM) | relative viability (Bosutinib + Lapatinib; first compound 0.1 µM) | relative viability (Bosutinib + Lapatinib; first compound 1 µM) | relative viability (Bosutinib + Pemetrexed; first compound 0.01 µM) | relative viability (Bosutinib + Pemetrexed; first compound 0.03162 µM) | relative viability (Bosutinib + Pemetrexed; first compound 0.1 µM) | relative viability (Bosutinib + Pemetrexed; first compound 1 µM) | relative viability (Bosutinib + Bortezomib; first compound 0.01 µM) | relative viability (Bosutinib + Bortezomib; first compound 0.03162 µM) | relative viability (Bosutinib + Bortezomib; first compound 0.1 µM) | relative viability (Bosutinib + Bortezomib; first compound 1 µM) | relative viability (Bosutinib + Palbociclib; first compound 0.01 µM) | relative viability (Bosutinib + Palbociclib; first compound 0.03162 µM) | relative viability (Bosutinib + Palbociclib; first compound 0.1 µM) | relative viability (Bosutinib + Palbociclib; first compound 1 µM) | relative viability (Bosutinib + Pictilisib; first compound 0.01 µM) | relative viability (Bosutinib + Pictilisib; first compound 0.03162 µM) | relative viability (Bosutinib + Pictilisib; first compound 0.1 µM) | relative viability (Bosutinib + Pictilisib; first compound 1 µM)
1 | NCI-H1651 | 0.923 | 0.877 | 0.767 | 0.823 | 0.529 | 0.678 | 0.643 | 0.569 | 0.914 | 0.942 | 0.994 | 0.978 | 0.506 | 0.535 | 0.507 | 0.534 | 0.579 | 0.62 | 0.62 | 0.687
2 | NCI-H1666 | 0.705 | 0.592 | 0.656 | 0.757 | 0.827 | 0.888 | 0.833 | 0.912 | 0.794 | 0.74 | 0.977 | 0.746 | 0.663 | 0.664 | 0.634 | 0.674 | 0.469 | 0.32 | 0.417 | 0.405
3 | NCI-H1734 | 1.17 | 1.07 | 0.977 | 1.06 | 0.401 | 0.392 | 0.445 | 0.377 | 0.948 | 0.951 | 0.827 | 0.879 | 0.334 | 0.367 | 0.365 | 0.299 | 0.507 | 0.427 | 0.447 | 0.447
4 | NCI-H1755 | 1.03 | 1.11 | 1.06 | 0.915 | 0.405 | 0.488 | 0.468 | 0.45 | 0.941 | 1.07 | 1.03 | 0.894 | 0.435 | 0.456 | 0.433 | 0.469 | 0.45 | 0.497 | 0.509 | 0.287
5 | NCI-H1792 | 0.892 | 0.866 | 0.918 | 0.866 | 0.902 | 0.792 | 0.891 | 0.764 | 0.991 | 0.95 | 0.974 | 0.884 | 0.686 | 0.588 | 0.724 | 0.728 | 0.299 | 0.27 | 0.367 | 0.332
